IC50 and EC50 data for ten molecules are collected here from patent US9085572B2, “4-(pyridin-3-yl)-2(pyridin-2yl)-1,2-dihydro-3H-pyrazol-3-one derivatives as specific HIF-pyrolyl-4-hydroxylase inhibitors for treating cardiovascular and haematological diseases” (Bayer Intellectual Property GmbH, priority 2005, dated 2015).

Counter-ions that a name gives are not always drawn.

The target of one experiment is HIF prolyl hydroxylase. The experiment in a line: Inhibition of the activity of HIF prolyl hydroxylase (VBC complex binding to hydroxylated peptide substrate). The note with it: cell lysate containing prolyl hydroxylase, biotin-DLDLEMLAPYIPMDDDFQL peptide substrate. The class given is biochemical. On the procedure:
Hydroxylated HIF bonds specifically to the von Hippel-Lindau protein-elongin B-elongin C complex (VBC complex). This interaction occurs only if HIF is hydroxylated on a conserved prolyl radical. It is the basis for the biochemical determination of HIF prolyl hydroxylase activity. The test is carried out as described [Oehme F., Jonghaus W., Narouz-Ott L., Huetter J., Flamme I., Anal. Biochem. 330 (1), 74-80 (2004)]:
A clear 96-well microtiter plate coated with NeutrAvidin HBC (Pierce) is incubated with blocker casein for 30 minutes. The plate is then washed three times with 200 μl each time of wash buffer (50 mM Tris, pH 7.5, 100 mM NaCl, 10% (v/v) blocker casein, 0.05% (v/v) Tween 20) per well. The peptide biotin-DLDLEMLAPYIPMDDDFQL (Eurogentec, 4102 Seraing, Belgium) is added in a concentration of 400 nM in 100 μl wash buffer. This peptide serves as a substrate for the prolyl hydroxylation and is bonded to the microtiter plate. After incubation for 30 minutes, the plate is washed three times with wash buffer, incubated with 1 mM biotin in blocker casein for 30 minutes and then washed again three times with wash buffer.
To carry out the prolyl hydroxylase reaction, the peptide substrate bonded to the plate is incubated with a cell lysate containing prolyl hydroxylase for 1 to 60 minutes. The reaction takes place in 100 μl reaction buffer (20 mM Tris, pH 7.5, 5 mM KCl, 1.5 mM MgCl2, 1 μM-1 mM 2-oxoglutarate, 10 μM FeSO4, 2 mM ascorbate) at room temperature. The reaction mixture moreover contains various concentrations of the prolyl hydroxylase inhibitor to be tested. The test substance is preferably, but not exclusively, employed at concentrations of between 1 nM and 100 μM. The reaction is stopped by washing the plate three times with wash buffer.
For quantitative determination of the prolyl hydroxylation, a fusion protein which contains both thioredoxin from E. coli and the VBC complex is added in 80 μl bonding buffer (50 mM Tris, pH 7.5, 120 mM NaCl). After 15 minutes, 10 μl of a solution of polyclonal anti-thioredoxin antibodies from rabbit in bonding buffer are added. After a further 30 minutes, 10 μl of a solution of anti-rabbit immunoglobulin coupled to horseradish peroxidase in bonding buffer are added. After incubation at room temperature for 30 minutes, the plate is washed three times with wash buffer in order to remove non-bonded VBC complex and antibodies. To determine the amount of bonded VBC complex, the plate is incubated with TMB for 15 minutes. The color reaction is ended by addition of 100 μl 1 M sulfuric acid. The amount of bonded VBC complex is determined by measurement of the optical density at 450 nm. It is proportional to the amount of hydroxylated proline in the peptide substrate.
Alternatively, a VBC complex coupled to europium (Perkin Elmer) can be used for detection of the prolyl hydroxylation. In this case, the amount of bonded VBC complex is determined by the fluorescence with respect to time. The use of VBC complex labeled with [^35S]-methionine is moreover possible. For this, the radioactively labeled VBC complex can be prepared by in vitro transcription-translation in reticulocyte lysate.

Experiment [1] has as its system recombinant A549 cell line with HRE-controlled luciferase reporter. Briefly: Cellular, functional in vitro test: luciferase reporter under hypoxia-responsible elements in recombinant A549 cell line. The note with it: Homo sapiens, luciferase light signal six to 24 hours after addition of test substance. Format: cell-based. From the text:
The activity of the compounds according to the invention is quantified with the aid of a recombinant cell line. The cell is originally derived from a human lung carcinoma cell line (A549, ATCC: American Type Culture Collection, Manassas, Va. 20108, USA). The test cell line is transfected in a stable manner with a vector which contains the reporter gene of Photinus pyralis luciferase (called luciferase in the following) under the control of an artificial minimal promoter. The minimal promoter comprises two hypoxia-responsible elements upstream of a TATA box [Oehme F., Ellinghaus P., Kolkhof P., Smith T. J., Ramakrishnan S., Hütter J., Schramm M., Flamme I., Biochem. Biophys. Res. Commun. 296 (2), 343-9 (2002)]. Under the effect of hypoxia (e.g. culturing in the presence of 1% oxygen for 24 hours) or under the action of non-selective dioxygenase inhibitors (e.g. desferroxamine in a concentration of 100 μM, cobalt chloride in a concentration of 100 μM or N-oxalylglycine diethyl ester in a concentration of 1 mM), the test cell line produces luciferase, which can be detected and quantified with the aid of suitable bioluminescence reagents (e.g. Steady-Glo® Luciferase Assay System, Promega Corporation, Madison, Wis. 53711, USA) and a suitable luminometer.
Test Procedure: On the day before the test, the cells are plated out in an exactly calculated amount of culture medium (DMEM, 10% FCS, 2 mM glutamine) in 384- or 1,536-well microtiter plates and kept in a cell incubator (96% atmospheric humidity, 5% v/v CO2, 37° C.). On the test day, the test substances are added to the culture medium in graduated concentrations. No test substance is added to the cells in batches serving as negative controls. As a positive control for determination of the sensitivity of the cell to inhibitors, desferroxamine e.g. is added in a final concentration of 100 μM. Six to 24 hours after transfer of the test substances into the wells of the microtiter plate, the resulting light signal is measured in the luminometer. A dose/effect relationship is plotted with the aid of the measurement values, which serves as the basis for determining the half-maximum active concentration (call the EC50 value in the following).
For orientation: Reporter assays use an easily measured gene product as a stand-in for the process of interest.

By IC50 is commonly meant the concentration at which inhibition is half-maximal. The EC50 is the concentration that produces a half-maximal response. On to `O=C(CCn1cc(Cl)cn1)NCc1ccnc(-n2[nH]cc(-c3cccnc3)c2=O)c1` [Example 50, 3-(4-Chloro-1H-pyrazol-1-yl)-N-{[2-(5-oxo-4-pyridin-3-yl-2,5-dihydro-1H-pyrazol-1-yl)pyridin-4-yl]methyl}propanamide], for which the IC50 on HIF prolyl hydroxylase came out at 1.9 µM. Besides, the EC50 in experiment [1] turned out to be 7.1 µM.
Molecule `O=c1c(-c2cccnc2)c[nH]n1-c1cc(CO)ccn1` [Example 43, 2-[4-(Hydroxymethyl)pyridin-2-yl]-4-pyridin-3-yl-1,2-dihydro-3H-pyrazol-3-one hydrochloride] registered an IC50 at HIF prolyl hydroxylase of 1.5 µM. Further, the EC50 in experiment [1] worked out at 7.6 µM.
On HIF prolyl hydroxylase, `Cc1ncccc1-c1c[nH]n(-c2ccccn2)c1=O` [Example 26] returned an IC50 of 0.76 µM. Also, the EC50 in experiment [1] is 6 µM.
The matching figures for `O=C(NCc1ccnc(-n2[nH]cc(-c3cccnc3)c2=O)c1)c1ccccc1` [Example 48, N-{[2-(5-Oxo-4-pyridin-3-yl-2,5-dihydro-1H-pyrazol-1-yl)pyridin-4-yl]methyl}benzamide hydrochloride]: 1.9 µM and 18.9 µM.
Molecule `O=c1c(-c2cccnc2)c[nH]n1-c1ccccn1` [Example 6, 2-Pyridin-2-yl-4-pyridin-3-yl-1,2-dihydro-3H-pyrazol-3-one] yielded an IC50 on HIF prolyl hydroxylase of 0.43 µM. Moreover, the EC50 in experiment [1] stood at 4.9 µM.
`CC(=O)NCc1ccnc(-n2[nH]cc(-c3cccnc3)c2=O)c1` [Example 47, N-{[2-(5-Oxo-4-pyridin-3-yl-2,5-dihydro-1H-pyrazol-1-yl)pyridin-4-yl]methyl}acetamide hydrochloride] had a concentration for half-maximal inhibition (IC50) on HIF prolyl hydroxylase of 2.2 µM. In addition, in experiment [1], the EC50 is 12.4 µM.
`O=C(Cc1ccccc1)NCc1ccnc(-n2[nH]cc(-c3cccnc3)c2=O)c1` [Example 46, N-{[2-(5-Oxo-4-pyridin-3-yl-2,5-dihydro-1H-pyrazol-1-yl)pyridin-4-yl]methyl}-2-phenylacetamide hydrochloride]: the IC50 at HIF prolyl hydroxylase amounted to 0.7 µM. Further, the EC50 in experiment [1] is 7.4 µM.
Consider `O=c1c(-c2cccnc2)c[nH]n1-c1ccc(CO)cn1` [Example 23, 2-(5-Hydroxymethyl-pyridin-2-yl)-4-pyridin-3-yl-1,2-dihydro-3H-pyrazol-3-one hydrochloride], for which the IC50 at HIF prolyl hydroxylase stood at 0.86 µM. The EC50 in experiment [1] was 13.4 µM.
In the same order, the values of `NCc1ccnc(-n2[nH]cc(-c3cccnc3)c2=O)c1` [Example 35, 2-[4-(Aminomethyl)pyridin-2-yl]-4-pyridin-3-yl-1,2-dihydro-3H-pyrazol-3-one dihydrochloride] are 2.3 µM and 17.2 µM.
The matching figures for `Cc1ccnc(-n2[nH]cc(-c3ccc(C#N)nc3)c2=O)c1` [Example 34, 4-(6-Cyanopyridin-3-yl)-2-(4-methylpyridin-2-yl)-1,2-dihydro-3H-pyrazol-3-one hydrochloride]: 0.18 µM and 4.7 µM.
